Experimental data taken from patent US11214803B2, “Modulators of YAP1 expression” (Ionis Pharmaceuticals, Inc., priority 2019, dated 2022).
Several values for one entry are separate records, joined by “and”; a condition that tells them apart may be missing. Equal entries are not always repeated. Where two headings read alike, the source gives them in different places. Marks after values point to notes of the source that are not given here.

Key:
[1] = rat, in vivo, sc, 50 mg/kg
Protocol: (§1) Male Sprague-Dawley rats were maintained on a 12-hour light/dark cycle and fed ad libitum with Purina normal rat chow. Groups of 4 Sprague-Dawley rats each were weekly injected subcutaneously with 50 mg/kg of Ionis oligonucleotide for 6 weeks (total 7 doses). Forty-eight hours after the last dose, the rats were euthanized; and organs, urine and plasma were harvested for further analysis.
(§2) To evaluate the effect of Ionis oligonucleotides on kidney function, urinary levels of total protein and creatinine were measured using an automated clinical chemistry analyzer (Hitachi Olympus AU400c, Melville, N.Y.).

[2] = Tolerability in Sprague-Dawley rats, plasma chemistry markers (Example 21); format: in vivo; details: male Sprague-Dawley rats, 50 mg/kg s.c. weekly for 6 weeks (7 doses), 48 hours after last dose
Protocol: Sprague-Dawley rats are a multipurpose model used for safety and efficacy evaluations. The rats were treated with Ionis modified oligonucleotides from the studies described in the Examples above and evaluated for changes in the levels of various plasma chemistry markers.

SNU449 xenograft tumor [3] = assay: Tumor volume in SNU449 xenograft tumor model (first Example 30); format: in vivo, human; details: 50 mg/kg
Protocol: Modified oligonucleotides described in the studies above were tested in a hepatocellular carcinoma SNU449 xenograft tumor model. A control oligonucleotide 792169 was also tested.
Five million SNU449 cells in 30% matrigel were implanted subcutaneously into the fatpads of female NOD.Cg-Prkdcscid II2rgtmlWjl/SzJ mice (from Jackson Laboratory) at 4-6 weeks of age. 43 days post implantation (when tumors had reached approximately 100 mm^3 in size), groups of eight mice each were administered with 50 mg/kg modified oligonucleotide daily for 10 days (loading dose), following which they were administered with 50 mg/kg modified oligonucleotide four times a week for one week, following which they were dosed with 50 mg/kg modified oligonucleotide thrice weekly until the end of the study. Animals were sacrificed and tumors were collected on day 119 post implantation. Yap1 mRNA knockdown in tumors was measured by RT-qPCR as previously described using the Human Yap1 primer-probe set RTS4814. Yap1 mRNA levels were normalized to actin-beta content, as measured by primer probe set RTS5002. Results are presented in the tables below as percent control of the amount of Yap1 mRNA relative to PBS treated animals (% control).
Tumor volumes were also measured at the indicated days in the table below

SNU449 xenograft tumor [4] = assay: Tumor volume in SNU449 xenograft tumor model, alone and in combination with sorafenib (second Example 30); format: in vivo, human; details: SNU449 xenograft, oligonucleotide 50 mg/kg, sorafenib 30 mg/kg orally
Protocol: Modified oligonucleotides described in the studies above were tested in a hepatocellular carcinoma SNU449 xenograft tumor model. […] A control oligonucleotide 792169, described herein above, was also tested.
Five million SNU449 cells in 30% matrigel were implanted subcutaneously into the fatpads of female NOD.Cg-Prkdcscid II2rgtmlWjl/SzJ mice (from Jackson Laboratory) at 4-6 weeks of age. 43 days post implantation (when tumors had reached approximately 100 mm^3 in size), groups of eight mice each were administered with 50 mg/kg modified oligonucleotide daily for 10 days (loading dose), following which they were administered with 50 mg/kg modified oligonucleotide four times a week for one week, following which they were dosed with 50 mg/kg modified oligonucleotide thrice weekly until the end of the study. […] Animals were sacrificed, and tumors were collected on day 119 post implantation.
Tumor volumes were also measured at the indicated days in the table below.

[5] = Tolerability in CD-1 mice, plasma chemistry markers (Example 18); format: in vivo; details: male CD-1 mice, 50 mg/kg s.c. twice a week (total of 9 treatments), day 34
Protocol: CD-1 mice were treated with modified oligonucleotides selected from studies described above and evaluated for changes in the levels of various plasma chemistry markers.
Groups of four male CD-1 mice at 5-6 weeks of age (obtained from Charles River) were injected subcutaneously twice a week for four weeks (for a total of 9 treatments) with 50 mg/kg of modified oligonucleotides. One group of male CD-1 mice was injected with PBS. Mice were euthanized on day 34 post start of treatment (24 hours following the final administration).

[6] = rat, in vivo, sc, 50 mg/kg; remark: listed apart in the source
Protocol: as §1, §2

Yap1 mRNA = assay: Dose-dependent inhibition of human Yap1 in A-431 cells (Example 8, 10,000 cells per well, RTS4814); format: cell-based; details: for % UTC (Yap1 mRNA) / IC50: A-431 cells; for Yap1 mRNA, % UTC: A-431 cells, 10,000 cells per well
Method in brief: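 Yap1 mRNA, normalized to RIBOGREEN total RNA and expressed as % untreated control, was read with RTS4814 about 48 h after free-uptake oligonucleotide treatment of A-431 cells at 10,000 cells/well. IC50 derived by linear regression of log/linear data.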

[7] = day 101 post tumor implantation
[8] = day 105 post tumor implantation
[9] = day 108 post tumor implantation
[10] = day 119 post tumor implantation

## 1198439 (AGTGTATGTCAGAAGA; sugar, 5-methylcytosine, phosphorothioate modifications, further chemistry not given here) [compound 1198439]
[1]
  URINE P/C ratio (total protein to creatinine ratio): 8*
[2]
  ALT: 54* U/L
  AST: 94* U/L
  BUN: 22* mg/dL
  TBIL: 0.15* mg/dL

## 1198440 (AAGTGTATGTCAGAAG; cEt, 2'-MOE, 5-methylcytosine, phosphorothioate modifications, further chemistry not given here) [compound 1198440]
[1]
  URINE P/C ratio (total protein to creatinine ratio): 9
SNU449 xenograft tumor [3]; day 43 post tumor implantation
  Average Tumor Volume: 111 mm^3
SNU449 xenograft tumor [3]; day 46 post tumor implantation
  Average Tumor Volume: 152 mm^3
SNU449 xenograft tumor [3]; day 50 post tumor implantation
  Average Tumor Volume: 168 mm^3
SNU449 xenograft tumor [3]; day 53 post tumor implantation
  Average Tumor Volume: 201 mm^3
SNU449 xenograft tumor [3]; day 57 post tumor implantation
  Average Tumor Volume: 242 mm^3
SNU449 xenograft tumor [3]; day 60 post tumor implantation
  Average Tumor Volume: 263 mm^3
SNU449 xenograft tumor [3]; day 64 post tumor implantation
  Average Tumor Volume: 338 mm^3
SNU449 xenograft tumor [3]; day 67 post tumor implantation
  Average Tumor Volume: 376 mm^3
SNU449 xenograft tumor [3]; day 71 post tumor implantation
  Average Tumor Volume: 373 mm^3
SNU449 xenograft tumor [3]; day 75 post tumor implantation
  Average Tumor Volume: 401 mm^3
SNU449 xenograft tumor [3]; day 78 post tumor implantation
  Average Tumor Volume: 429 mm^3
SNU449 xenograft tumor [3]; day 81 post tumor implantation
  Average Tumor Volume: 514 mm^3
SNU449 xenograft tumor [3]; day 85 post tumor implantation
  Average Tumor Volume: 606 mm^3
SNU449 xenograft tumor [3]; day 88 post tumor implantation
  Average Tumor Volume: 613 mm^3
SNU449 xenograft tumor [3]; day 92 post tumor implantation
  Average Tumor Volume: 690 mm^3
SNU449 xenograft tumor [3]; day 94 post tumor implantation
  Average Tumor Volume: 773 mm^3
SNU449 xenograft tumor [3]; day 98 post tumor implantation
  Average Tumor Volume: 804 mm^3
SNU449 xenograft tumor [3]; [7]
  Average Tumor Volume: 818 mm^3
SNU449 xenograft tumor [3]; [8]
  Average Tumor Volume: 894 mm^3
SNU449 xenograft tumor [3]; [9]
  Average Tumor Volume: 921 mm^3
SNU449 xenograft tumor [3]; [10]
  Average Tumor Volume: 978 mm^3
[2]
  ALT: 58** U/L
  AST: 108** U/L
  BUN: 20** mg/dL
  TBIL: 0.17** mg/dL
SNU449 xenograft tumor [4]; day 43 post tumor implantation
  Average Tumor Volume: 111 mm^3
SNU449 xenograft tumor [4]; day 46 post tumor implantation
  Average Tumor Volume: 152 mm^3
SNU449 xenograft tumor [4]; day 50 post tumor implantation
  Average Tumor Volume: 168 mm^3
SNU449 xenograft tumor [4]; day 53 post tumor implantation
  Average Tumor Volume: 201 mm^3
SNU449 xenograft tumor [4]; day 57 post tumor implantation
  Average Tumor Volume: 242 mm^3
SNU449 xenograft tumor [4]; day 60 post tumor implantation
  Average Tumor Volume: 263 mm^3
SNU449 xenograft tumor [4]; day 64 post tumor implantation
  Average Tumor Volume: 338 mm^3
SNU449 xenograft tumor [4]; day 67 post tumor implantation
  Average Tumor Volume: 376 mm^3
SNU449 xenograft tumor [4]; day 71 post tumor implantation
  Average Tumor Volume: 373 mm^3
SNU449 xenograft tumor [4]; day 75 post tumor implantation
  Average Tumor Volume: 401 mm^3
SNU449 xenograft tumor [4]; day 78 post tumor implantation
  Average Tumor Volume: 429 mm^3
SNU449 xenograft tumor [4]; day 81 post tumor implantation
  Average Tumor Volume: 514 mm^3
SNU449 xenograft tumor [4]; day 85 post tumor implantation
  Average Tumor Volume: 606 mm^3
SNU449 xenograft tumor [4]; day 88 post tumor implantation
  Average Tumor Volume: 613 mm^3
SNU449 xenograft tumor [4]; day 92 post tumor implantation
  Average Tumor Volume: 690 mm^3
SNU449 xenograft tumor [4]; day 94 post tumor implantation
  Average Tumor Volume: 773 mm^3
SNU449 xenograft tumor [4]; day 98 post tumor implantation
  Average Tumor Volume: 804 mm^3
SNU449 xenograft tumor [4]; [7]
  Average Tumor Volume: 818 mm^3
SNU449 xenograft tumor [4]; [8]
  Average Tumor Volume: 894 mm^3
SNU449 xenograft tumor [4]; [9]
  Average Tumor Volume: 921 mm^3
SNU449 xenograft tumor [4]; [10]
  Average Tumor Volume: 978 mm^3

## CGCCGATAAGGTACAC (cEt gapmer, phosphorothioate backbone, further chemistry not given here) [ION 792169, reference compound]
SNU449 xenograft tumor [3]; day 43 post tumor implantation
  Average Tumor Volume: 111 mm^3
SNU449 xenograft tumor [3]; day 46 post tumor implantation
  Average Tumor Volume: 162 mm^3
SNU449 xenograft tumor [3]; day 50 post tumor implantation
  Average Tumor Volume: 180 mm^3
SNU449 xenograft tumor [3]; day 53 post tumor implantation
  Average Tumor Volume: 247 mm^3
SNU449 xenograft tumor [3]; day 57 post tumor implantation
  Average Tumor Volume: 280 mm^3
SNU449 xenograft tumor [3]; day 60 post tumor implantation
  Average Tumor Volume: 317 mm^3
SNU449 xenograft tumor [3]; day 64 post tumor implantation
  Average Tumor Volume: 397 mm^3
SNU449 xenograft tumor [3]; day 67 post tumor implantation
  Average Tumor Volume: 466 mm^3
SNU449 xenograft tumor [3]; day 71 post tumor implantation
  Average Tumor Volume: 519 mm^3
SNU449 xenograft tumor [3]; day 75 post tumor implantation
  Average Tumor Volume: 559 mm^3
SNU449 xenograft tumor [3]; day 78 post tumor implantation
  Average Tumor Volume: 634 mm^3
SNU449 xenograft tumor [3]; day 81 post tumor implantation
  Average Tumor Volume: 681 mm^3
SNU449 xenograft tumor [3]; day 85 post tumor implantation
  Average Tumor Volume: 785 mm^3
SNU449 xenograft tumor [3]; day 88 post tumor implantation
  Average Tumor Volume: 889 mm^3
SNU449 xenograft tumor [3]; day 92 post tumor implantation
  Average Tumor Volume: 1170 mm^3
SNU449 xenograft tumor [3]; day 94 post tumor implantation
  Average Tumor Volume: 1215 mm^3
SNU449 xenograft tumor [3]; day 98 post tumor implantation
  Average Tumor Volume: 1355 mm^3
SNU449 xenograft tumor [3]; [7]
  Average Tumor Volume: 1417 mm^3
SNU449 xenograft tumor [3]; [8]
  Average Tumor Volume: 1509 mm^3
SNU449 xenograft tumor [3]; [9]
  Average Tumor Volume: 1571 mm^3
SNU449 xenograft tumor [3]; [10]
  Average Tumor Volume: 1697* mm^3
SNU449 xenograft tumor [4]; day 43 post tumor implantation
  Average Tumor Volume: 111 mm^3
SNU449 xenograft tumor [4]; day 46 post tumor implantation
  Average Tumor Volume: 162 mm^3
SNU449 xenograft tumor [4]; day 50 post tumor implantation
  Average Tumor Volume: 180 mm^3
SNU449 xenograft tumor [4]; day 53 post tumor implantation
  Average Tumor Volume: 247 mm^3
SNU449 xenograft tumor [4]; day 57 post tumor implantation
  Average Tumor Volume: 280 mm^3
SNU449 xenograft tumor [4]; day 60 post tumor implantation
  Average Tumor Volume: 317 mm^3
SNU449 xenograft tumor [4]; day 64 post tumor implantation
  Average Tumor Volume: 397 mm^3
SNU449 xenograft tumor [4]; day 67 post tumor implantation
  Average Tumor Volume: 466 mm^3
SNU449 xenograft tumor [4]; day 71 post tumor implantation
  Average Tumor Volume: 519 mm^3
SNU449 xenograft tumor [4]; day 75 post tumor implantation
  Average Tumor Volume: 559 mm^3
SNU449 xenograft tumor [4]; day 78 post tumor implantation
  Average Tumor Volume: 634 mm^3
SNU449 xenograft tumor [4]; day 81 post tumor implantation
  Average Tumor Volume: 681 mm^3
SNU449 xenograft tumor [4]; day 85 post tumor implantation
  Average Tumor Volume: 785 mm^3
SNU449 xenograft tumor [4]; day 88 post tumor implantation
  Average Tumor Volume: 889 mm^3
SNU449 xenograft tumor [4]; day 92 post tumor implantation
  Average Tumor Volume: 1170 mm^3
SNU449 xenograft tumor [4]; day 94 post tumor implantation
  Average Tumor Volume: 1215 mm^3
SNU449 xenograft tumor [4]; day 98 post tumor implantation
  Average Tumor Volume: 1355 mm^3
SNU449 xenograft tumor [4]; [7]
  Average Tumor Volume: 1417 mm^3
SNU449 xenograft tumor [4]; [8]
  Average Tumor Volume: 1509 mm^3
SNU449 xenograft tumor [4]; [9]
  Average Tumor Volume: 1571 mm^3
SNU449 xenograft tumor [4]; [10]
  Average Tumor Volume: 1697* mm^3

## 958499 (ATTAGAGTATGTGGCA; 3-10-3 cEt gapmer, further chemistry not given here) [compound 958499]
[5]
  ALT: 79 U/L
  AST: 88 U/L
  BUN: 24 mg/dL
  TBIL: 0.18 mg/dL
[6]
  URINE P/C ratio (total protein to creatinine ratio): 5
Yap1 mRNA; 31.3 nM
  % UTC (Yap1 mRNA): 36 % UTC and 37 % UTC
Yap1 mRNA; 125.0 nM
  % UTC (Yap1 mRNA): 5 % UTC and 4 % UTC
Yap1 mRNA; 500.0 nM
  % UTC (Yap1 mRNA): 2 % UTC
Yap1 mRNA; 2000.00 nM
  % UTC (Yap1 mRNA): 2 % UTC
Yap1 mRNA; Yap1 mRNA
  IC50: < 20 nM

## 1076453 (GTAATATTGCAATCTG; 3-10-3 cEt gapmer, further chemistry not given here) [compound 1076453]
[5]
  ALT: 56 U/L
  AST: 113 U/L
  BUN: 20 mg/dL
  TBIL: 0.24 mg/dL
[6]
  URINE P/C ratio (total protein to creatinine ratio): 5
Yap1 mRNA; 31.3 nM, free uptake, approximately 48 hours, RTS4814
  Yap1 mRNA, % UTC: 11 % UTC
Yap1 mRNA; 125.0 nM, free uptake, approximately 48 hours, RTS4814
  Yap1 mRNA, % UTC: 2 % UTC
Yap1 mRNA; 500.0 nM, free uptake, approximately 48 hours, RTS4814
  Yap1 mRNA, % UTC: 1 % UTC
Yap1 mRNA; 2000.00 nM, free uptake, approximately 48 hours, RTS4814
  Yap1 mRNA, % UTC: 2 % UTC
Yap1 mRNA; free uptake, approximately 48 hours, RTS4814, linear regression on log/linear plot
  IC50: < 20 nM
